In patent US20230382926A1, “COMPOUNDS AND USES THEREOF” (The University of The West Indies, priority 2022, published 2023):

Assays:
[1] = test system: Methicillin resistant Staphylococcus aureus; test: Broth microdilution minimum inhibitory concentration; assay type: cell-based; details: compound alone
Method: (§1) Antibacterial activity of the synthesized compounds was determined following guidelines established by the Clinical and Laboratory Standards Institute M07-A10 (CLSI 2015), following the broth microdilution method. Briefly, the test articles were dissolved in 100% DMSO, diluted by 2-fold serial titrations in the same vehicle (100% DMSO), for a total of 11 concentrations. A 4 μL aliquot of each dilution was then added to 196 μL of broth medium seeded with the bacterial suspension in wells of a 96 well plate (bacterial count: 2×10^5 to 8×10^5 colony forming units/mL final). The highest test substance concentration was 1028 μg/mL, and the final vehicle concentration was 2 percent. Following incubation, the test plate was visually examined, and each well was scored for growth or complete inhibition of growth. The minimum inhibitory concentration was determined as the lowest concentration were no growth of the bacterial was observed. Each test article was assayed in duplicate.

[2] = test system: Carbapenem resistant Acinetobacter baumannii; test: as above; assay type: cell-based; details: compound alone
Method: as §1

[3] = test system: Vancomycin resistant Enterococcus faecalis; test: as above; assay type: cell-based; details: compound alone
Method: as §1

[4] = test system: Multidrug resistant Pseudomonas aeruginosa; test: as above; assay type: cell-based; details: compound alone
Method: as §1

[5] = test system: Carbapenem resistant Klebsiella pneumoniae; test: as above; assay type: cell-based; details: compound alone
Method: as §1

[6] = test system: P. aeruginosa; test: Rescue concentration of substituted phenyl azaindole derivatives; assay type: cell-based; details: Imipenem fixed at 1 μg/mL
Method: (§2) The antibiotic adjuvant activity of the SPazaBIMs were evaluated in combination with representative antibiotics (representing 13 antibiotic classes) against the 19 pathogens strains listed in Table 3. To assess the adjuvant properties of the SP-azaBIM molecules, a modified checkerboard minimum inhibitory concentration assay was used. A fixed concentration of the respective antibiotic (susceptible breakpoint concentration) was mixed with a twofold dilution series of the test SP-azaBIM (FIG. 1). This was to determine the concentration of SP-azaBIM needed potentiate the antibiotic at a clinically susceptible breakpoint concentration. Antibiotic susceptible breakpoint concentrations for the respective bacteria were determined using Clinical Laboratory Standards Institute (CLSI) criteria M100 ED31.
(§3) In this study, only those antibiotics to which the bacterial was classed as resistant were included in the adjuvant assays. In this assay we recorded the rescue concentration of the SP-BIM for a respective antibiotic. The rescue concentration was defined as the concentration of the adjuvant that reduces the minimum inhibitory concentration (MIC) of an antibiotic to the susceptibility breakpoint.
(§4) Immediately prior to testing, the respective antibiotic and SP-azaBIM was dissolved in sterile deionised water at 20× the required test concentration. Each microtiter well was then inoculated with 180 μl of bacterial inoculum of 10^6 CFU/ml in ca-MHB, and 10 μl each if the antibiotic and SP-azaBIM was added to the plates. These plates were then incubated at 35° C. for 24 h under aerobic conditions. A similar method was followed for the fastidious pathogens except that they were cultured in ca-MHB with 5% sheep blood and 5% CO2.
Bacterial growth was visually inspected after the incubation period and the rescue concentration of the test SP-azaBIM was determined as the lowest concentration of the compound needed to reduce bacterial growth by 99.99% at the susceptible breakpoint concentration of the antibiotic. […] If the bacteria can tolerate this concentration in vitro, then the bacteria has an intermediate or absolute resistance toward that antibiotic. […]
(§5) Phenyl azaindole compounds are also tested for their adjuvant activities and the method is shown in Example 39.

[7] = test system: K. pneumoniae; test: as above; assay type: cell-based; details: for Rescue concentration, K. pneumoniae Ciprofloxacin (1 μg/mL): Ciprofloxacin fixed at 1 μg/mL; for Rescue concentration, K. pneumoniae Imipenem (1 μg/mL): Imipenem fixed at 1 μg/mL
Method: as §2, §3, §4
(§6) Bacterial growth was visually inspected after the incubation period and the rescue concentration of the test SP-azaBIM was determined as the lowest concentration of the compound needed to reduce bacterial growth by 99.99% at the susceptible breakpoint concentration of the antibiotic. For example, CLSI states that Pseudomonas aeruginosa is susceptible to the Imipenem if the MIC is ≤2 μg mL^−1. If the bacteria can tolerate this concentration in vitro, then the bacteria has an intermediate or absolute resistance toward that antibiotic. The goal was to determine the concentration of SP-azaBIM needed to cause P. aeruginosa death at 2 μg mL^−1 of Imipenem therefore restoring susceptibility of the bacteria to toward the antibiotic.
as §5

[8] = test system: MRSA; test: as above; assay type: cell-based, Staphylococcus aureus; details: Amoxicillin fixed at 2 μg/mL
Method: as §2, §3, §4, §6, §5

MIC [1] [µg/mL] | MIC [2] [µg/mL] | MIC [3] [µg/mL] | MIC [4] [µg/mL] | MIC [5] [µg/mL] | Compound | Rescue concentration, P. aeruginosa Imipenem (1 μg/mL) [6] [µg/mL] | Rescue concentration, K. pneumoniae Ciprofloxacin (1 μg/mL) [7] [µg/mL] | Rescue concentration, K. pneumoniae Imipenem (1 μg/mL) [7] [µg/mL] | Rescue concentration, MRSA Amoxicillin (2 μg/mL) [8] [µg/mL]
< 1020 | < 1020 | < 1020 | < 1020 | < 1020 | Oc1ccc(C(c2c[nH]c3cnc(Cl)cc23)c2c[nH]c3cnc(Cl)cc23)cc1 [4OH-Bis 5Cl 6aza, 4-(bis(5-chloro-1H-pyrrolo[2,3-c]pyridin-3-yl)methyl)phenol] | <256 | <256 | <256 | 8
< 1020 | < 1020 | < 1020 | < 1020 | < 1020 | O=[N+]([O-])c1ccc(C(O)c2c[nH]c3c(Cl)nccc23)cc1 (stereo not drawn) [4NO2-7Cl-6aza-OH, (7-chloro-1H-pyrrolo[2,3-c]pyridin-3-yl)(4-nitrophenyl)methanol] | <256 | <256 | <256 | 8
< 1020 | < 1020 | < 1020 | < 1020 | < 1020 | O=[N+]([O-])c1cccc(C(O)c2c[nH]c3cnc(Cl)cc23)c1 (stereo not drawn) [3NO2-5Cl-6aza-OH, (5-chloro-1H-pyrrolo[2,3-c]pyridin-3-yl)(3-nitrophenyl)methanol] | <256 | <256 | <256 | <256
< 1020 | < 1020 | < 1020 | < 1020 | < 1020 | O=[N+]([O-])c1ccc(C(O)c2c[nH]c3cnc(Br)cc23)cc1 (stereo not drawn) [4NO2-5Br-6aza-OH, (5-bromo-1H-pyrrolo[2,3-c]pyridin-3-yl)(4-nitrophenyl)methanol] | <256 | <256 | <256 | 32
< 1020 | < 1020 | < 1020 | < 1020 | < 1020 | Oc1ccc(C(O)c2c[nH]c3cnc(Cl)cc23)cc1 (stereo not drawn) [4OH-5Cl-6aza-OH, 4-((5-chloro-1H-pyrrolo[2,3-c]pyridin-3-yl)(hydroxy)methyl)phenol] | <256 | <256 | 256 | 16
< 1020 | < 1020 | < 1020 | < 1020 | < 1020 | O=[N+]([O-])c1ccc(C(O)c2c[nH]c3cnccc23)cc1 (stereo not drawn) [Compound 4NO2-6aza-OH, (4-nitrophenyl)(1H-pyrrolo[2,3-c]pyridin-3-yl)methanol] | <256 | 128 | 128 | 128
< 1020 | < 1020 | < 1020 | < 1020 | < 1020 | O=[N+]([O-])c1cccc(C(O)c2c[nH]c3c(Cl)nccc23)c1 (stereo not drawn) [3NO2-7Cl-6aza, (7-chloro-1H-pyrrolo[2,3-c]pyridin-3-yl)(3-nitrophenyl)methanol] | <256 | <256 | <256 | 32
< 1020 | < 1020 | < 1020 | < 1020 | < 1020 | OC(c1ccc(Br)cc1)c1c[nH]c2c(Cl)nccc12 (stereo not drawn) [4Br-7Cl-6aza-OH, (4-bromophenyl)(7-chloro-1H-pyrrolo[2,3-c]pyridin-3-yl)methanol] | <256 | <256 | <256 | 2
< 1020 | < 1020 | < 1020 | < 1020 | < 1020 | Nc1ccc(C(O)c2c[nH]c3cnccc23)cc1 (stereo not drawn) [Compound 4NH2-6aza-OH, (4-aminophenyl)(1H-pyrrolo[2,3-c]pyridin-3-yl)methanol] | 128 | 64 | 16 | 8
< 1020 | < 1020 | < 1020 | < 1020 | < 1020 | OC(c1ccc(Br)cc1)c1c[nH]c2cnc(Cl)cc12 (stereo not drawn) [4Br-5Cl-6aza-OH, (4-bromophenyl)(5-chloro-1H-pyrrolo[2,3-c]pyridin-3-yl)methanol] | <256 | <256 | <256 | 0.5
< 1020 | < 1020 | < 1020 | < 1020 | < 1020 | O=[N+]([O-])c1ccccc1C(O)c1c[nH]c2cnccc12 (stereo not drawn) [Compound 2NO2-6aza-OH, (2-nitrophenyl)(1H-pyrrolo[2,3-c]pyridin-3-yl)methanol] | <256 | 256 | 128 | 256
< 1020 | < 1020 | < 1020 | < 1020 | < 1020 | O=[N+]([O-])c1ccc(C(O)c2c[nH]c3ncc(F)cc23)cc1 (stereo not drawn) [4NO2-5Fl-7aza-OH, (5-fluoro-1H-pyrrolo[2,3-b]pyridin-3-yl)(4-nitrophenyl)methanol] | <256 | <256 | <256 | 16
< 1020 | < 1020 | < 1020 | < 1020 | < 1020 | Oc1ccc(C(O)c2c[nH]c3ncccc23)cc1 (stereo not drawn) [Compound 4OH-7aza-OH, 4-(hydroxy(1H-pyrrolo[2,3-b]pyridin-3-yl)methyl)phenol] | <256 | <256 | <256 | 128
< 1020 | < 1020 | < 1020 | < 1020 | < 1020 | O=[N+]([O-])c1cccc(C(O)c2c[nH]c3c(Cl)nc(Br)cc23)c1 (stereo not drawn) [3NO2-5Br-7Cl-6aza-OH, (5-bromo-7-chloro-1H-pyrrolo[2,3-c]pyridin-3-yl)(3-nitrophenyl)methanol] | <256 | <256 | <256 | 16
